The values below come from ChEMBL document CHEMBL1201862, “PubChem BioAssay data set” (2004).

Each structure is given as a SMILES string.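 Values below derive from 48-hour exposures of cells grown in 96-well plates, with endpoints linearly interpolated between the two concentrations bracketing the appropriate inhibition level. GI50 is the concentration that inhibits growth by half.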 The source made the active and inactive calls. Cut-off read from the data, not from the text of the source: active = GI50 up to about 1.1 µM and inactive = higher.

Test in all cases: NCI-60 cell line screen, 48 h
Test [1] concerns 786-0.
Test [2] deals with ACHN.
The test system of test [3] is HCT-15.
The test system of test [4] is HL-60.
Test [5] concerns HOP-92.
In test [6] the test system is HT-29.
Test [7] has as its system Malme-3M.
Test [8] relates to NCI-H460.
For test [9], the system named is NCI-H522.
Test [10] deals with OVCAR-3.
Test [11] concerns OVCAR-4.
Test [12] has as its system SK-MEL-2.
The subject of test [13] is SK-MEL-5.
Test [14] deals with SN12C.
Test [15] concerns SNB-75.
In test [16] the test system is SW-620.
Test [17] deals with UACC-62.
The subject of test [18] is UO-31.

With `O=C(O)CCC(=O)OCN1C(=O)C2C3C=CC(C2C1=O)C1C2C(=O)N(COC(=O)CCC(=O)O)C(=O)C2C31` (configuration not stated), the GI50 in [1] was > 62.7 µM (inactive); in test [2], > 67 µM (inactive); in [3] it was 32.4 µM; in test [4], 23.4 µM (inactive); in test [5], > 100 µM (inactive); in [6] it was > 100 µM (inactive). The GI50 in [7] was > 100 µM (inactive); in [8] it was 32.5 µM (inactive); in [9] it was > 47 µM (inactive); in test [10], > 100 µM (inactive); in test [11], > 100 µM (inactive); in test [12] it was > 100 µM (inactive). Besides, the GI50 in test [13] is > 100 µM (inactive); in [14] it was > 86.5 µM (inactive); in [15], > 95.7 µM (inactive); in test [16], 38.4 µM (inactive); in [17], > 100 µM (inactive); in test [18], 98.6 µM (inactive).
On to `CCC(/C(=N\Nc1c(Cl)cc(Cl)cc1Cl)c1ccccc1)n1ccnc1C` (configuration not stated), for which the GI50 in test [1] is 11.7 µM (inactive); in test [2] it was 5.52 µM (inactive); in test [3], 10.5 µM; in [4] it was 3.82 µM (inactive); in test [5], 4.06 µM (inactive); in [6], 8.05 µM (inactive). The GI50 is 11.7 µM (inactive) in test [7]; 11 µM (inactive) in test [8]; 4.55 µM (inactive) in test [9]; 5.82 µM (inactive) in test [10]; 10.5 µM (inactive) in test [11]; 13.3 µM (inactive) in test [12]. In addition, the GI50 in test [13] is 7.91 µM (inactive); in test [14] it was 11.9 µM (inactive); in test [15], 14.6 µM (inactive); in test [16], 15.2 µM (inactive); in test [17] it was 17.5 µM (inactive); in test [18], 5.97 µM (inactive).
With `Cc1cc([N+](=O)[O-])ccc1Sc1c2ccccc2nc2ccccc12`, the GI50 in test [1] was 23.6 µM (inactive); in [2], 48.9 µM (inactive); in [3], 22.5 µM; in [4], 3.03 µM (inactive); in test [5] it was 48.3 µM (inactive); in [7], > 100 µM (inactive). Besides, the GI50 is 32 µM (inactive) in test [8]; 18.1 µM (inactive) in test [9]; 41.4 µM (inactive) in [10]; 57.8 µM (inactive) in test [11]; 23.1 µM (inactive) in test [12]; 43.1 µM (inactive) in [13]. In addition, the GI50 was 39.6 µM (inactive) in test [14]; 39.6 µM (inactive) in test [15]; 22.6 µM (inactive) in test [16]; 25.1 µM (inactive) in test [17]; 44.7 µM (inactive) in test [18].
Take `COc1ccc(C(C)Nc2cc(OC)c(OC)c(OC)c2)cc1` (configuration not stated): the GI50 was 6.65 µM (inactive) in test [1]; 8.87 µM (inactive) in test [2]; 3 µM in test [3]; 1.94 µM (inactive) in [4]; 1.56 µM (inactive) in test [5]; 3.57 µM (inactive) in test [6]. The GI50 was 3.68 µM (inactive) in test [7]; 3.03 µM (inactive) in [8]; 2.51 µM (inactive) in test [9]; 2.69 µM (inactive) in [10]; 6.43 µM (inactive) in test [11]; 3.01 µM (inactive) in [12]. In addition, the GI50 in test [13] is 2.54 µM (inactive); in test [14], 7.71 µM (inactive); in [15], 5.75 µM (inactive); in [16], 2.88 µM (inactive); in [17], 2.91 µM (inactive); in test [18], 10.5 µM (inactive).
Consider `CC1(C)OC2OC(/C=C/[N+](=O)[O-])C3OC(C)(C)OC3C2O1` (configuration not stated), for which the GI50 in test [1] is 13.8 µM (inactive); in test [2] it was 15.4 µM (inactive); in [3], 2.25 µM; in [4], 2.94 µM (inactive); in test [5] it was 8.43 µM (inactive); in test [6], 17.2 µM (inactive). For the same molecule, the GI50 in test [7] is 5.35 µM (inactive); in test [8], 15.4 µM (inactive); in test [9], 1.77 µM (inactive); in [10], 16.4 µM (inactive); in test [11], 16.3 µM (inactive); in test [12], 18.2 µM (inactive). Moreover, the GI50 was 16.6 µM (inactive) in test [13]; 15.6 µM (inactive) in test [14]; 20.2 µM (inactive) in test [15]; 3.27 µM (inactive) in test [16]; 15.1 µM (inactive) in [17]; 20.4 µM (inactive) in [18].
`COc1ccc(C(=O)O)c(Cc2ccc3ccccc3c2)c1`: the GI50 in [1], in [2], in test [4], in [5], in test [6] and in [7] was > 100 µM (inactive) each time. Further, the GI50 in [8], in [9], in test [10], in test [11], in test [12] and in test [13] was > 100 µM (inactive) each time. In addition, the GI50 in [14], in test [15], in [16], in [17] and in test [18] was > 100 µM (inactive) each time.
Regarding `NNC(=S)N/N=C/C(=C/Nc1ccccc1)[N+](=O)[O-]`, the GI50 in test [1], in test [2], in [4], in test [5], in [6] and in test [7] was > 100 µM (inactive) throughout. In addition, the GI50 in test [9], in [10], in test [11], in test [12], in test [14] and in test [15] was > 100 µM (inactive) throughout. For the same molecule, the GI50 in [16] and in [17] was > 100 µM (inactive) throughout.
Consider `COC1=C(C(=O)OC(C)(C)C)C23CCCCC2(C(C(=O)OC(C)(C)C)=C(OC)C3C(=O)OC(C)(C)C)C1C(=O)OC(C)(C)C` (configuration not stated), for which the GI50 in test [1] was > 100 µM (inactive); in [2] it was 20.1 µM (inactive); in test [3], 15.2 µM; in test [4], 6.81 µM (inactive); in test [5], 7.05 µM (inactive); in [6] it was 18.5 µM (inactive). Further, the GI50 is 55.8 µM (inactive) in test [7]; 11.5 µM (inactive) in test [8]; 11.6 µM (inactive) in test [9]; 7.8 µM (inactive) in [10]; 9.12 µM (inactive) in test [11]; 4.18 µM (inactive) in test [12]. Also, the GI50 in [13] was 12.4 µM (inactive); in test [14], 38.2 µM (inactive); in test [15] it was 84.5 µM (inactive); in test [16], 60.3 µM (inactive); in [17] it was 54.8 µM (inactive); in test [18], 9.35 µM (inactive).
For the molecule `COc1ccc(Nc2nc3c(N)cc(C(F)(F)F)cc3nc2-c2ccccc2)cc1OC`, the GI50 in [1] was 12.4 µM (inactive); in test [2], 12.8 µM (inactive); in test [3], 33.4 µM; in test [4], 8.63 µM (inactive); in test [5] it was 20.5 µM (inactive); in [7], 16.4 µM (inactive). The GI50 is 27.3 µM (inactive) in [8]; 15.6 µM (inactive) in test [9]; 18.8 µM (inactive) in test [10]; 11.9 µM (inactive) in test [11]; 22 µM (inactive) in test [12]; 20.4 µM (inactive) in test [13]. Further, the GI50 in test [14] is 20.2 µM (inactive); in [15] it was 4.85 µM (inactive); in [16], 57.4 µM (inactive); in test [17], 19.7 µM (inactive); in [18] it was 30.3 µM (inactive).
For the molecule `CCCCCCCCCCCCCP(=O)(O)O`, the GI50 in [1] is > 100 µM (inactive); in test [2] it was > 100 µM (inactive); in test [3], over 100 µM; in [4] it was > 100 µM (inactive); in test [5], > 100 µM (inactive); in [6], > 100 µM (inactive). For the same molecule, the GI50 in test [7], in test [8], in test [9], in test [10], in test [11] and in test [12] was > 100 µM (inactive) each time. Also, the GI50 is > 100 µM (inactive) in test [13]; > 100 µM (inactive) in test [14]; 23.2 µM (inactive) in test [15]; > 100 µM (inactive) in test [16]; > 100 µM (inactive) in [17]; > 100 µM (inactive) in [18].
Turning to `COc1c(C)c2c(c3c1c(=O)c1ccccc1n3C)C=CC(C)(C)O2`, the GI50 in test [1] is 23.4 µM (inactive); in test [2], 20.6 µM (inactive); in [3], 18.2 µM; in test [4], 9.73 µM (inactive); in test [5], 31.9 µM (inactive); in test [6] it was 14 µM (inactive). Moreover, the GI50 in test [7] was 25.8 µM (inactive); in [8], 18.7 µM (inactive); in test [9] it was 20.9 µM (inactive); in test [10], 19.6 µM (inactive); in [12], 25 µM (inactive); in [13], 15.3 µM (inactive). Also, the GI50 in test [14] was 30.2 µM (inactive); in test [15], 20.4 µM (inactive); in test [16], 38 µM (inactive); in test [17], 14.4 µM (inactive); in [18] it was 26.5 µM (inactive).
As for `Cc1cccc(C2=NC(C)(C)C(C)(C)N=C2c2cccc(C)n2)n1`, the GI50 was > 100 µM (inactive) in [1]; > 100 µM (inactive) in [2]; over 100 µM in test [3]; 53.6 µM (inactive) in test [4]; > 100 µM (inactive) in test [5]; 26.1 µM (inactive) in [6]. The GI50 is > 100 µM (inactive) in [7]; > 100 µM (inactive) in [8]; > 100 µM (inactive) in test [9]; 44.1 µM (inactive) in test [10]; > 100 µM (inactive) in test [11]; > 100 µM (inactive) in [12]. Moreover, the GI50 in test [13], in test [15], in test [16], in [17] and in [18] was > 100 µM (inactive) each time.
